Measured values published in PubChem BioAssay (NCI).
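Protocol summary: plate cells (96-well), add compound at 5 concentrations, incubate 48 h, interpolate endpoints linearly. TGI is the concentration that stops growth completely.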

How the values were obtained:
Assay in all cases: growth of human tumour cells (NCI), 48 h
[1] = system: MOLT-4 leukemia
[2] = system: UACC-62 melanoma
[3] = system: NCI-H522 lung
[4] = system: SNB-19 CNS
[5] = system: NCI/ADR-RES ovarian
[6] = system: MCF7 breast
[7] = system: HS 578T breast
[8] = system: NCI-H226 lung
[9] = system: HT29 colon
[10] = system: COLO 205 colon
[11] = system: MDA-MB-435
[12] = system: TK-10 renal
[13] = system: UACC-257 melanoma
[14] = system: HL-60(TB) leukemia
[15] = system: SF-539 CNS
[16] = system: IGROV1 ovarian
[17] = system: RXF 393 renal
[18] = system: SR leukemia
[19] = system: ACHN renal
[20] = system: NCI-H460 lung
[21] = system: HCC-2998 colon
[22] = system: OVCAR-4 ovarian
[23] = system: MDA-MB-231 breast
[24] = system: LOX IMVI melanoma
[25] = system: SK-OV-3 ovarian
[26] = system: MDA-N
[27] = system: SK-MEL-2 melanoma
[28] = system: EKVX NSCLC
[29] = system: K-562 leukemia
[30] = system: M14 melanoma
[31] = system: PC-3 prostate
[32] = system: RPMI-8226 leukemia
[33] = system: UO-31 renal
[34] = system: HCT-116 colon
[35] = system: U251 CNS
[36] = system: OVCAR-5 ovarian
[37] = system: SN12C renal
[38] = system: SF-295 CNS
[39] = system: HOP-62 NSCLC
[40] = system: A549 NSCLC
[41] = system: NCI-H23 lung
[42] = system: MALME-3M melanoma
[43] = system: SF-268 CNS
[44] = system: SK-MEL-5 melanoma
[45] = system: SW-620 colon
[46] = system: HCT-15 colon
[47] = system: HOP-92 NSCLC
[48] = system: OVCAR-3 ovarian
[49] = system: 786-0 renal
[50] = system: BT-549 breast
[51] = system: DU-145 prostate
[52] = system: KM12 colon
[53] = system: OVCAR-8 ovarian
[54] = system: T-47D breast
[55] = system: CCRF-CEM leukemia
[56] = system: CAKI-1 renal
[57] = system: A498 renal
[58] = system: SNB-75 CNS
[59] = system: SK-MEL-28 melanoma

With `O=C1C(Cl)C(c2cccc(Br)c2)N1c1c(O)c(Cl)cc(Br)c1Cl` (configuration not stated) the TGI [1] was 35.7 µM, the TGI [2] was 33.8 µM and the TGI [3] was 30 µM. It also gave a TGI [4] of 11.5 µM, a TGI [5] of 89.8 µM and a TGI [6] of 25.8 µM. For the same compound, the TGI [7] was 24 µM, the TGI [8] was 51.8 µM and the TGI [9] was 23 µM. The TGI [10] was 20.8 µM, the TGI [11] was 31.1 µM and the TGI [12] was 51.4 µM. It also gave a TGI [13] of 43.9 µM, a TGI [14] of 53.5 µM and a TGI [15] of 32.6 µM. For the same compound, the TGI [16] was 10.7 µM, the TGI [17] was 24.3 µM and the TGI [18] was 56.3 µM. The TGI [19] was 37.6 µM, the TGI [20] was 27.1 µM and the TGI [21] was 23.2 µM. It also gave a TGI [22] of 24.7 µM, a TGI [23] of 46 µM and a TGI [24] of 28.5 µM. For the same compound, the TGI [25] was 55.8 µM, the TGI [26] was 53.3 µM and the TGI [27] was 25 µM. The TGI [28] was 39 µM, the TGI [29] was 37.1 µM and the TGI [30] was 27.1 µM. For the same compound, the TGI [31] was 75.1 µM, the TGI [32] was 37.9 µM and the TGI [33] was 40 µM. The TGI [34] was 27.6 µM, the TGI [35] was 25.3 µM and the TGI [36] was 56.5 µM. The TGI [37] was 28.3 µM, the TGI [38] was 31.1 µM and the TGI [39] was 32.4 µM. The TGI [40] was 40 µM, the TGI [41] was 37.9 µM and the TGI [42] was 55.3 µM. It also gave a TGI [43] of 44.3 µM, a TGI [44] of 27.2 µM and a TGI [45] of 41.4 µM. For the same compound, the TGI [46] was 19.3 µM, the TGI [47] was 29 µM and the TGI [48] was 36.1 µM. The TGI [49] was > 100 µM, the TGI [50] was > 100 µM and the TGI [51] was 32.9 µM. For the same compound, the TGI [52] was 39.4 µM, the TGI [53] was > 100 µM and the TGI [54] was 44.6 µM. For the same compound, the TGI [55] was 41.3 µM and the TGI [56] was 81.1 µM.

In the case of `O=C(O)C1CCCCC1C(=O)Nc1nc2ccccc2[nH]1` (configuration not stated), the TGI [1] is reported as > 100 µM, the TGI [2] is reported as > 100 µM and the TGI [3] is reported as > 100 µM. For the same compound, the TGI [4] was > 100 µM, the TGI [5] was > 100 µM and the TGI [6] was > 100 µM. The TGI [7] was > 100 µM, the TGI [8] was > 100 µM and the TGI [9] was > 100 µM. For the same compound, the TGI [10] was > 100 µM, the TGI [57] was > 100 µM and the TGI [11] was > 100 µM. The TGI [12] was > 100 µM, the TGI [13] was > 100 µM and the TGI [15] was > 100 µM. The TGI [16] was > 100 µM, the TGI [17] was > 100 µM and the TGI [18] was > 100 µM. The TGI [19] was > 100 µM, the TGI [20] was > 100 µM and the TGI [22] was > 100 µM. The TGI [23] was > 100 µM, the TGI [24] was > 100 µM and the TGI [25] was > 100 µM. For the same compound, the TGI [26] was > 100 µM, the TGI [27] was > 100 µM and the TGI [28] was > 100 µM. The TGI [58] was > 100 µM, the TGI [30] was > 100 µM and the TGI [31] was > 100 µM. The TGI [32] was > 100 µM, the TGI [33] was > 100 µM and the TGI [34] was > 100 µM. The TGI [35] was > 100 µM, the TGI [36] was > 100 µM and the TGI [37] was > 100 µM. The TGI [38] was > 100 µM, the TGI [39] was > 100 µM and the TGI [40] was > 100 µM. The TGI [59] was > 100 µM, the TGI [41] was > 100 µM and the TGI [42] was > 100 µM. For the same compound, the TGI [43] was > 100 µM, the TGI [44] was > 100 µM and the TGI [45] was > 100 µM. For the same compound, the TGI [46] was > 100 µM, the TGI [47] was > 100 µM and the TGI [48] was > 100 µM. The TGI [49] was > 100 µM, the TGI [50] was > 100 µM and the TGI [51] was > 100 µM. The TGI [52] was > 100 µM, the TGI [53] was > 100 µM and the TGI [54] was > 100 µM. The TGI [55] was > 100 µM and the TGI [56] was > 100 µM.

With `Cc1ccc(Nc2cc(=O)[nH]c(=O)[nH]2)cc1CS` the TGI [1] was > 100 µM, the TGI [2] was > 100 µM and the TGI [3] was > 100 µM. The TGI [4] was > 100 µM, the TGI [5] was > 100 µM and the TGI [7] was > 100 µM. The TGI [8] was > 100 µM, the TGI [9] was > 100 µM and the TGI [10] was > 100 µM. The TGI [57] was > 100 µM, the TGI [11] was > 100 µM and the TGI [12] was > 100 µM. For the same compound, the TGI [13] was > 100 µM, the TGI [15] was > 100 µM and the TGI [16] was > 100 µM. The TGI [17] was > 100 µM, the TGI [18] was > 100 µM and the TGI [19] was > 100 µM. For the same compound, the TGI [20] was > 100 µM, the TGI [21] was > 100 µM and the TGI [22] was > 100 µM. For the same compound, the TGI [23] was > 100 µM, the TGI [24] was > 100 µM and the TGI [25] was > 100 µM. For the same compound, the TGI [26] was > 100 µM, the TGI [27] was > 100 µM and the TGI [28] was > 100 µM. The TGI [58] was > 100 µM, the TGI [29] was > 100 µM and the TGI [30] was > 100 µM. The TGI [31] was > 100 µM, the TGI [32] was > 100 µM and the TGI [33] was > 100 µM. For the same compound, the TGI [34] was > 100 µM, the TGI [35] was > 100 µM and the TGI [36] was > 100 µM. For the same compound, the TGI [37] was > 100 µM, the TGI [38] was > 100 µM and the TGI [39] was > 100 µM. The TGI [40] was > 100 µM, the TGI [59] was > 100 µM and the TGI [41] was > 100 µM. For the same compound, the TGI [42] was > 100 µM, the TGI [43] was > 100 µM and the TGI [44] was > 100 µM. The TGI [45] was > 100 µM, the TGI [46] was > 100 µM and the TGI [47] was > 100 µM. The TGI [48] was > 100 µM, the TGI [49] was > 100 µM and the TGI [50] was > 100 µM. The TGI [52] was > 100 µM, the TGI [53] was > 100 µM and the TGI [54] was > 100 µM. For the same compound, the TGI [55] was > 100 µM and the TGI [56] was > 100 µM.

For `COc1cc(/C=C2/C(=O)N=C(NC(C)=O)N2C)ccc1OC(C)=O`, the TGI [1] was > 100 µM, the TGI [2] was > 100 µM and the TGI [4] was > 100 µM. The TGI [5] was > 100 µM, the TGI [6] was > 100 µM and the TGI [8] was > 100 µM. For the same compound, the TGI [9] was > 100 µM, the TGI [10] was > 100 µM and the TGI [11] was > 100 µM. For the same compound, the TGI [12] was > 100 µM, the TGI [13] was > 100 µM and the TGI [14] was > 100 µM. The TGI [15] was > 100 µM, the TGI [16] was > 100 µM and the TGI [19] was > 100 µM. For the same compound, the TGI [20] was > 100 µM, the TGI [21] was > 100 µM and the TGI [22] was > 100 µM. The TGI [23] was > 100 µM, the TGI [24] was > 100 µM and the TGI [25] was > 100 µM. For the same compound, the TGI [26] was > 100 µM, the TGI [27] was > 100 µM and the TGI [28] was > 100 µM. The TGI [58] was > 100 µM, the TGI [30] was > 100 µM and the TGI [31] was > 100 µM. For the same compound, the TGI [33] was > 100 µM, the TGI [34] was > 100 µM and the TGI [35] was > 100 µM. The TGI [36] was > 100 µM, the TGI [37] was > 100 µM and the TGI [38] was > 100 µM. The TGI [39] was > 100 µM, the TGI [40] was > 100 µM and the TGI [59] was > 100 µM. For the same compound, the TGI [41] was > 100 µM, the TGI [44] was > 100 µM and the TGI [45] was > 100 µM. For the same compound, the TGI [46] was > 100 µM, the TGI [47] was > 100 µM and the TGI [48] was > 100 µM. For the same compound, the TGI [49] was > 100 µM, the TGI [50] was > 100 µM and the TGI [51] was > 100 µM. The TGI [52] was > 100 µM, the TGI [53] was > 100 µM and the TGI [54] was > 100 µM. For the same compound, the TGI [56] was > 100 µM.
